Source: patent publication EP1202628B1, “NOVEL HYPOXANTHINE AND THIOHYPOXANTHINE COMPOUNDS” (EURO-CELTIQUE S.A., priority 1999, dated 2001)

Target: T1, PDE V (Homo sapiens, UniProt O76074)
T1 construct: Fractions that contain PDE V are pooled and dialyzed overnight; from tissue
Assay: Type V phosphodiesterase inhibition (hydrolysis of [3H]-cyclic GMP)
Type: biochemical
Conditions: enzyme isolated from platelets
Protocol: Protocol for Enzyme Isloation: The Type V PDE is isolated using a procedure similar to that previously described by Weishaar et al., Hypertension 15:528, (1990). Briefly, 1-2 units of platelets are suspended in an equal volume of buffer A (20 mM Tris-HCl, pH 7.5, containing 2 mM magnesium acetate, I mM dithiothreitol, and 5 mM Na2EDTA) using a polytron. The proteinase inhibitor phenylmethylsulfonyl fluoride (PMSF) are also included in this buffer at a final concentration of 200 uM. This and all subsequent procedures are performed at 0-4°C. The homogenate is then centrifuged at 100,000 rpm for 60 minutes. The supernatant is then removed and filtered through four layers of gauze and applied to a DEAE-Trisacryl M column. The column is washed with several bed volumes of buffer B (20 mM Tris-HCl, pH 7.5, containing 2 mM magnesium acetate, 1 mM dithiothreitol, and […]) and eluted by two successive linear NaCl gradients (0.05-0.15 M, 300 ml total; 0.15-0.40 M, 200 ml total). Five ml fractions are collected and assayed for cyclic AMP and cyclic GMP PDE activity. Fractions that contain PDE V are pooled and dialyzed overnight against 4 L of buffer C (20 mM Tris-HCl, pH 7.5, containing 2 mM magnesium acetate and proteinase inhibitors). The dialyzed PDE V is then concentrated to 10% of the original volume, diluted to 50% with ethylene glycol monoethyl ether and stored at -20°C. PDE V can typically be retained for up to four weeks with little or no loss of activity.
Measuring Type V PDE Activity: Enzyme activity is assessed by measuring the hydrolysis of [^3H]-cyclic GMP, as described by Thompson et al. (Thompson, W.J., Teraski, W.L., Epstein, P.N., Strada, S.J.: Adv. Cyclic Nucleotide Res. 10:69, 1979). The cyclic GMP concentration used in this assay is 0.2 uM, which approximates to the Km value. Protein concentration is adjusted to ensure that no more than 15% of the available substrate is hydrolyzed during the incubation period.
All test compounds are dissolved in dimethyl sulfoxide (final concentration of 2.5%). This concentration of dimethyl sulfoxide inhibits enzyme activity by approximately 10%. The reference Type V PDE inhibitor zaprinast is evaluated with each assay.
The compounds are tested over concentration range: 0.1, 1, 10, 100 uM (n=1), and IC50 determinations are made using 5 appropriate concentrations (n=2).

| Compound | IC50 |
| --- | --- |
| COc1ccc(Cn2cnc(=O)c3[nH]c(C(C)(C)OCc4ccc(F)cc4)nc32)cc1OC [3-(3,4-Dimethoxybenzyl)-8-(1-(4-fluorobenzyloxy)-1-methyl-ethyl)-hypoxanthine] | 35.8 µM |
| COc1ccc(Cn2cnc(=O)c3[nH]c(C(C)(C)OCc4ccccc4)nc32)cc1OCc1ccccc1 [3-(3-benzyloxy-4-methoxy-benzyl)-8-(1-benzyloxy-1-methyl-ethyl)-hypoxanthine] | 12.5 µM |
| COc1ccc(Cn2cnc(=O)c3[nH]c(C(C)C)nc32)cc1OC1CCCC1 [3-(3-Cyclopentyloxy-4-methoxy-benzyl)-8-isopropyl-hypoxanthine] | 49 µM |
| COc1ccc(Cn2cnc(=O)c3[nH]c(C(C)(C)O)nc32)cc1OC1CCCC1 [3-(3-Cyclopentyloxy-4-methoxy-benzyl)-8-(1-hydroxy-1-methyl-ethyl)-hypoxanthine] | 193 µM |
| COc1ccc(Cn2cnc(=O)c3[nH]c(C(C)(C)OCc4ccc(F)cc4)nc32)cc1OC1CCCC1 [3-(3-Cyclopentyloxy-4-methoxy-benzyl)-8-(1-(4-fluorobenzyloxy)-1-methyl-ethyl)-hypoxanthine] | 14.5 µM |

Stronger by IC50, values ahead:

| IC50 | Compound |
| --- | --- |
| 7.53 µM | COc1ccc(Cn2cnc(=O)c3[nH]c(COCc4ccccc4)nc32)cc1OC1CCCC1 [8-Benzyloxymethyl-3-(3-cyclopentyloxy-4-methoxy-benzyl)-hypoxanthine] |
| 6.32 µM | CC(C)c1nc2c([nH]1)c(=O)ncn2Cc1cccc(Cl)c1 [3-(3-Chloro-benzyl)-8-(1-methyl-ethyl)-hypoxanthine] |
| 8.28 µM | COc1ccc(Cn2cnc(=O)c3[nH]c(C(C)(C)OCc4ccccc4)nc32)cc1OC1CCCC1 [8-(1-benzyloxy-1-methyl-ethyl)-3-(3-cyclopentyloxy-4-methoxy-benzyl)-hypoxanthine] |
| 7.6 µM | CC(C)c1nc2c([nH]1)c(=O)ncn2Cc1ccc(Cl)cc1 [3-(4-Chloro-benzyl)-8-(1-methyl-ethyl)-hypoxanthine] |
| 10.6 µM | COc1ccc(Cn2cnc(=O)c3[nH]c(C(C)C)nc32)cc1OC [3-(3,4-Dimethoxy-benzyl)-8-(1-methyl-ethyl)-hypoxanthine] |
| 10 µM | COc1ccc(Cn2cnc(=O)c3[nH]c(C(C)(C)OCc4ccccc4)nc32)cc1OC [8-(1-Benzyloxy-1-methyl-ethyl)-3-(3,4-dimethoxybenzyl)-hypoxanthine] |
